{"source": "patent US10729664B2", "about": "“Permanently charged sodium and calcium channel blockers as anti-inflammatory agents” (Children's Medical Center Corporation, priority 2009, dated 2020)", "key": {"[1]": {"system": "voltage-dependent calcium channels", "assay": "Whole-cell recording of currents through voltage-activated calcium channels in a dissociated dorsal root ganglion neuron", "assay_type": "cell-based, rat", "method": "The traces show currents through voltage-activated calcium channels in a dissociated rat dorsal root ganglion neuron, recorded in whole-cell mode. Current was carried by 2 mM Ba^2+ on a background of 155 mM N-methyl-D-glucamine (to eliminate Na current), with an internal CsCl-based solution. Calcium channels were opened by a voltage step from −80 mV to −20 mV. When channels are opened, inward-going current is carried by Ba^2+ ions flowing into the cell."}, "rat hindpaw": {"system": "rat hindpaw", "assay": "Edema elicited by injection of complete Freund's adjuvant (CFA) in the rat hindpaw, total hindpaw volume by plethysmography", "assay_type": "in vivo", "conditions": "intravenous QX-314 0.4 mg/kg", "method": "FIG. 1 is a graph showing the effect of intravenous QX-314 (0.4 mg/kg) on the edema elicited by injection of complete Freund's adjuvant (CFA) in the rat hindpaw determined by measuring the total volume of the hindpaw by plethysmography. The degree of swelling produced by injection of CFA is reduced by administration of QX-314 reflecting reduction in neurogenic edema resulting from the blockade of nociceptors by QX314."}}, "note": "Entries after “also recorded” stand apart in the source; their conditions may differ.", "data": [{"smiles": "COc1ccc(CC[N+](C)(C)CCCC(C#N)(c2ccc(OC)c(OC)c2)C(C)C)cc1OC", "note": "(centres unmarked) [N-methyl-verapamil]", "values": [{"measurement": "effect on calcium channel currents, N-methyl-verapamil alone", "setting": "[1]; 300 μM N-methyl-verapamil alone, before and 3 minutes after exposure, step from −80 mV to −20 mV, 2 mM Ba2+", "value": "weak, transient effects"}, {"measurement": "inhibition of voltage-dependent calcium channel current, N-methyl-verapamil applied in the presence of capsaicin", "setting": "[1]; 300 μM N-methyl-verapamil in the presence of 1 μM capsaicin to open TRPV1 channels, 3 minutes after exposure and after washout", "value": "long-lasting inhibition; also recorded: inhibition of calcium channel currents that persists after washout; also recorded: inhibition of voltage-dependent calcium channel current"}]}, {"smiles": "CC[N+](CC)(CC)CC(=O)Nc1c(C)cccc1C", "note": "[QX-314]", "values": [{"measurement": "degree of swelling produced by injection of CFA (total volume of the hindpaw)", "setting": "rat hindpaw; CFA-injected hindpaw", "value": "reduced"}, {"measurement": "effect on hindpaw volume of QX-314 by itself", "setting": "rat hindpaw; by itself (no CFA), compared with saline", "value": "no effect different from administration of saline"}]}, {"smiles": "COc1cc(CNC(=O)CCCC/C=C/C(C)C)ccc1O", "note": "[capsaicin, reference compound]", "values": [{"measurement": "effect on calcium channel currents, capsaicin alone", "setting": "[1]; 1 μM capsaicin alone, before and 3 minutes after exposure, step from −80 mV to −20 mV, 2 mM Ba2+", "value": "weak, transient effects"}]}]}
